Measured values reported in ChEMBL document CHEMBL1201862, “PubChem BioAssay data set” (2004).
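Values below derive from 48-hour exposures of cells grown in 96-well plates, with endpoints linearly interpolated between the two concentrations bracketing the appropriate inhibition level. GI50 marks 50% less growth.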 Calls of active or inactive are those of the source. Cut-off read from the data, not from the text of the source: active = GI50 up to about 1.1 µM and inactive = higher.

What was measured:
Experiment in all cases: NCI-60 cell line screen, 48 h
A498 = tested on: A498
MDA-MB-231 = tested on: MDA-MB-231
SN12C = tested on: SN12C
HCC 2998 = tested on: HCC 2998
HOP-92 = tested on: HOP-92
SW-620 = tested on: SW-620
HOP-62 = tested on: HOP-62
U-251 = tested on: U-251
Hs-578T = tested on: Hs-578T
SF-268 = tested on: SF-268
CAKI-1 = tested on: CAKI-1
ACHN = tested on: ACHN
SF-295 = tested on: SF-295
SK-MEL-28 = tested on: SK-MEL-28
LOX IMVI = tested on: LOX IMVI
SK-MEL-5 = tested on: SK-MEL-5
OVCAR-3 = tested on: OVCAR-3
PC-3 = tested on: PC-3
RXF 393 = tested on: RXF 393
Malme-3M = tested on: Malme-3M

| SMILES | GI50 (A498) | GI50 (MDA-MB-231) | GI50 (SN12C) | GI50 (HCC 2998) | GI50 (HOP-92) | GI50 (SW-620) | GI50 (HOP-62) | GI50 (U-251) | GI50 (Hs-578T) | GI50 (SF-268) | GI50 (CAKI-1) | GI50 (ACHN) | GI50 (SF-295) | GI50 (SK-MEL-28) | GI50 (LOX IMVI) | GI50 (SK-MEL-5) | GI50 (OVCAR-3) | GI50 (PC-3) | GI50 (RXF 393) | GI50 (Malme-3M) |
| --- | --- | --- | --- | --- | --- | --- | --- | --- | --- | --- | --- | --- | --- | --- | --- | --- | --- | --- | --- | --- |
| O=C1/C(=C/c2ccccc2S)N=C(c2ccccc2)N1c1ccc2c(c1)Sc1cc(N3C(=O)/C(=C/c4ccccc4S)N=C3c3ccccc3)ccc1N2 | 19.1 µM (inactive) | 28.4 µM (inactive) | 19.2 µM (inactive) | 20.5 µM (inactive) | 14.9 µM (inactive) | 19.8 µM (inactive) | 25.6 µM (inactive) | 19.7 µM (inactive) | 25.6 µM (inactive) | 19.5 µM (inactive) | 18.7 µM (inactive) | 18.6 µM (inactive) | 16.8 µM (inactive) | 21.7 µM (inactive) | 20.3 µM (inactive) | 17 µM (inactive) | 18.8 µM (inactive) | 21.4 µM (inactive) | – | – |
| C=C(C)C1Cc2c(cc(OC)c3c(=O)c4cccc(O)c4oc23)O1 (stereo not drawn) | – | 23.9 µM (inactive) | 28.6 µM (inactive) | 34.1 µM (inactive) | – | 53.1 µM (inactive) | 18.6 µM (inactive) | 16.8 µM (inactive) | 25.6 µM (inactive) | 20.4 µM (inactive) | 16.6 µM (inactive) | 18.2 µM (inactive) | 17.3 µM (inactive) | 25.5 µM (inactive) | 5.7 µM (inactive) | 16.5 µM (inactive) | – | 38.2 µM (inactive) | 19.4 µM (inactive) | 25.2 µM (inactive) |
| COP(=O)(OC)C(O)/C=C(\Cl)c1ccc(Cl)cc1 (stereo not drawn) | – | 43.8 µM (inactive) | 40.7 µM (inactive) | – | 18.9 µM (inactive) | 38.8 µM (inactive) | 28.4 µM (inactive) | 53.2 µM (inactive) | > 100 µM (inactive) | 65.2 µM (inactive) | 69.2 µM (inactive) | 85.1 µM (inactive) | > 100 µM (inactive) | > 100 µM (inactive) | 19.6 µM (inactive) | 23.7 µM (inactive) | 19.1 µM (inactive) | 31.6 µM (inactive) | 78.2 µM (inactive) | > 100 µM (inactive) |
| O=C(Nc1ccc(Cl)cc1)NS(=O)(=O)c1coc2cc(F)ccc2c1=O | – | > 100 µM (inactive) | > 100 µM (inactive) | 80.4 µM (inactive) | – | > 100 µM (inactive) | > 100 µM (inactive) | 62.2 µM (inactive) | > 100 µM (inactive) | > 100 µM (inactive) | > 100 µM (inactive) | 16.4 µM (inactive) | > 100 µM (inactive) | > 100 µM (inactive) | > 100 µM (inactive) | > 100 µM (inactive) | > 100 µM (inactive) | > 100 µM (inactive) | > 100 µM (inactive) | > 100 µM (inactive) |
| COc1ccc(C(=O)/C=C/c2ccc(OCCCOc3ccc(/C=C/C(=O)c4ccc(OC)cc4)cc3)cc2)cc1 | – | > 100 µM (inactive) | > 100 µM (inactive) | > 100 µM (inactive) | – | > 100 µM (inactive) | > 100 µM (inactive) | > 100 µM (inactive) | > 100 µM (inactive) | 52.2 µM (inactive) | > 100 µM (inactive) | > 100 µM (inactive) | > 100 µM (inactive) | 63 µM (inactive) | – | > 100 µM (inactive) | – | > 100 µM (inactive) | > 100 µM (inactive) | – |
| CN(Cc1cnc2nc(N)nc(N)c2n1)c1ccc(C(=O)NCCCS(=O)(=O)O)cc1 | > 100 µM (inactive) | > 100 µM (inactive) | > 100 µM (inactive) | > 100 µM (inactive) | 0.0264 µM (active) | > 100 µM (inactive) | > 100 µM (inactive) | > 100 µM (inactive) | > 100 µM (inactive) | > 100 µM (inactive) | – | > 100 µM (inactive) | > 100 µM (inactive) | > 100 µM (inactive) | 75.9 µM (inactive) | > 100 µM (inactive) | > 100 µM (inactive) | > 100 µM (inactive) | – | > 100 µM (inactive) |
| Oc1cccc2c1[nH]c1c(C3=C[C@@]4(O)CC/C=C\CCCCN5CC[C@@H]3[C@]3(CC6/C=C\CCCCN6[C@H]34)C5)nccc12 (stereo partly drawn) | 2.24 µM (inactive) | 1.19 µM (inactive) | 0.891 µM (active) | 0.384 µM (active) | 0.226 µM (active) | 1.43 µM (inactive) | 0.764 µM (active) | 1.08 µM (active) | 1.63 µM (inactive) | 1.58 µM (inactive) | 1.67 µM (inactive) | 1.1 µM (active) | 1.75 µM (inactive) | 1.66 µM (inactive) | 0.736 µM (active) | 1.59 µM (inactive) | 0.893 µM (active) | 0.738 µM (active) | – | 1.6 µM (inactive) |
